The values that follow come from paper PMC7070685, “Efficient Biocatalytic Synthesis of Dihalogenated Purine Nucleoside Analogues Applying Thermodynamic Calculations” (Molecules, 2020).

As a reminder, the IC50 is the concentration that gives 50% inhibition.

One experiment has as its system HEK293 cells. Put plainly: XTT cell proliferation assay, control cell line HEK293. The settings on record: control cell line HEK293, XTT assay after 24 h. In kind it is cell-based. On the procedure: (§1) HEK293 cells were cultured in […] Dulbecco’s modified Eagle’s medium (Biowest) containing 10% fetal bovine serum, 2 mM glutamine, non-essential amino acids, 4.5 mg mL^−1 glucose, and the antibiotics penicillin and streptomycin. HL-60 cells were cultured in RPMI 1640 w/o L-Glutamine supplemented with 10% fetal bovine serum, 2 mM glutamine, and the antibiotics penicillin and streptomycin. Cells were grown at 37 °C in a humidified atmosphere with 5% CO2.
(§2) Cytotoxicity was measured by the XTT assay at 450 nm as described by the manufacturer (Roche Diagnostics, Basel, Switzerland). Phosphate-buffered saline was used as negative control. For HL-60 and HEK293 cells, 1.2 × 10^5 cells in growth media were transferred to each well of a 96-well flat-bottom plate. Subsequently, modified nucleosides were added in varying concentrations. XTT assay was performed after 24 h for HL-60 and HEK293 cells, as described previously. At least three replicates for each nucleoside concentration were performed. All experiments were conducted for a minimum of three independent experiments.
For orientation: Formazan colour is commonly taken as a measure of viable cells.

In a further experiment the test system is HL-60 cells. Put plainly: XTT cell proliferation assay, HL-60. The settings on record: Homo sapiens; leukemia cell line HL-60, XTT assay after 24 h; read-out: IC50, inhibition of growth of HL-60 cells. In kind it is cell-based. On the procedure: as §1, §2

Regarding `Nc1nc(Cl)nc2c1ncn2[C@H]1C[C@H](O)[C@@H](CO)O1` [cladribine], the “inhibition of growth of the control cell line HEK293” value in the experiment with HEK293 cells was “No unspecific growth inhibition”. In the experiment on HL-60 cells, the IC50 was determined as 0.22 µM.
